SMILES strings stand for the structures.

For the test, the system named is SIV[SIV] or SIV[MLV] vector particles. The test can be described thus: Inhibition of retroviral transfer of V1-luc into CEMx174 cells by reverse transcriptase inhibitor. It counts as cell-based. The conditions noted are these: Simian immunodeficiency virus, CEMx174, read-out: transfer of V1-luc inhibited.

`Cc1cn([C@H]2C[C@H](N=[N+]=[N-])[C@@H](CO)O2)c(=O)[nH]c1=O` [Zidovudine, 3′-azido-2′,3′-dideoxythymidine]: the inhibition at 10 µM amounted to 90%.

For the origin of these results see patent publication US20020123471A1, “LENTIVIRUS BASED VECTOR AND VECTOR SYSTEM” (priority 1997, published 2002).
